Data from publication PMC12657321, “Pre-clinical evaluation of a potent and effective Pin1-degrading agent in pancreatic cancer” (Molecular Therapy Oncology, 2025).
Non-standard residues stand in square brackets, D forms with d. Residues, ends and D or L forms follow the SMILES beside them. *: point of attachment. Trp(6-Cl) = N[C@@H](Cc1c[nH]c2cc(Cl)ccc12)C(=O)O; Pip = O=C(O)[C@@H]1CCCCN1; ClAc = O=C(CCl)*

Key:
[1] = Stability in plasma from esterase-deficient (ES1e) mice; type: in vitro ADME; conditions: mouse, 37°C, up to 6 h, acetonitrile quench, LC-MS/MS
Method: A solution of a Pin1 inhibitor was spiked into blank plasma at 1 μg/mL in various solutions, including an aqueous buffer (1× phosphate-buffered saline; Fisher Scientific, Fair Lawn, NJ), human plasma (Innovative Research Inc., Novi, MI), wild-type mouse plasma (Innovative Research Inc., Novi, MI), plasma form esterase-deficient mice (City of Hope, Duarte, CA), and plasma from Black 6-Cg mice (City of Hope, Duarte, CA).
The spiked plasma samples were incubated at 37°C for up to 6 h. At each designated time point, a 20 μL aliquot of the incubation sample was removed and quenched in 100 μL of acetonitrile. At the end of the incubation, the quenched samples were vortexed and centrifuged for 10 min at 4°C and 20,000 × g. The resulting supernatant was reconstituted and analyzed by LC-MS/MS.
Table S2. Stability half-life of agents reported in Table 1 after incubation at 37 °C in various media. Acq represents aqueous buffer composed of 1x phosphate buffered saline (Fisher Scientific, Fair Lawn, NJ); human represents human plasma (Innovative Research Inc., Novi, MI); mouse wt represents wild type mouse plasma (Innovative Research Inc., Novi, MI); mouse ES1e represents plasma form esterase deficient mice (City of Hope, Duarte, CA); mouse B6-Cg represents plasma from black 6-Cg mice (City of Hope, Duarte, CA). See Figure 1 for the chemical structures of these compounds.
Compound Acq Human Mouse Mouse ES1e Mouse

human Pin1 [2] = target: T1, human Pin1 (Homo sapiens, UniProt Q13526); assay: Denaturation thermal shift measurements (SYPRO Orange); type: binding; conditions: thermal denaturation shift of Pin1, 20 μM protein, protein:ligand 1:2, 50 mM phosphate pH 7.5, 150 mM NaCl, 3% DMSO, 10-95°C, quadruplicates
T1 construct: Residues 1–163 of human Pin1 were expressed with a thrombin cleavage site and a HisTag at the N-terminus; 6xHis (N); thrombin cleavage site (N); made in house; host or cells: E. coli
T1 sequence (Q13526 whole entry, the tested form may be a part): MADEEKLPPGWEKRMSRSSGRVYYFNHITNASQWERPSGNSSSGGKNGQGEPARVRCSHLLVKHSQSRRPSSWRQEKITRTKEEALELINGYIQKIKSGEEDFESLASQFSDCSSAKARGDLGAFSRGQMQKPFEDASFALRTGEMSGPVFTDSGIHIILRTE
Method: (§1) To assess the ability of our agents to bind and inhibit Pin1, we developed a robust biochemical assay based on the dissociation-enhanced lanthanide fluorescent immunoassay (DELFIA) platform. In our implementation, we used a biotinylated form of a known Pin1-binding peptide (D-peptide) to monitor the ability of test agents to inhibit the interaction between Pin1 and the D-peptide at various incubation times, as described previously.[32] […] In addition, as mentioned above and reported recently, we tested the ability of the agents to reduce Pin1 thermal stability in vitro by thermal denaturation measurements.[32] […] Pin1 unfolding causes a nonspecific interaction between the water-quenched fluorescent dye and the protein’s exposed hydrophobic residues, resulting in increased fluorescence. A shift in the thermal denaturation temperature between the free and bound protein is interpreted as a stabilization or destabilization event induced by the test ligand. […] To further assess whether these agents could be suitable for in vivo efficacy studies, we also performed stability assays in aqueous buffer and in plasma from various species (Table S2, Figure S2). We tested the stability of our agents in plasma from multiple mouse strains as well as in human plasma (Figure S2), given the peptide nature of the compounds. […]

Pin1 in KPC cells = target: T2, Pin1 in KPC cells (Mus musculus, UniProt Q9QUR7); assay: Pin1 degradation by western blot in KPC cells; type: cell-based; conditions: 0.5-15 μM for 24 h, Pin1 relative to β-actin
T2 construct: endogenous in cells; host or cells: KPC
T2 sequence (Q9QUR7 whole entry): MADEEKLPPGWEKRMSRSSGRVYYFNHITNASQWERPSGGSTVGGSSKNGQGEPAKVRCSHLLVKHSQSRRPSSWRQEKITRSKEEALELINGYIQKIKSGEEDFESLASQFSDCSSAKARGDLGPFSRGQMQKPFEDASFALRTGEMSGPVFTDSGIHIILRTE
Method: To ascertain that the plasma-stable agent 164B8 retained its ability to induce Pin1 degradation in cells, we tested it in three pancreatic cancer cell lines—human BxPC3 and MIA PaCa-2, and the mouse pancreatic cancer cell line KPC—using western blot analysis (Figure 2).
Figure 2 Degradation of Pin1 in different cell lines in response to 164B8 treatment BxPC3, MIA PaCa-2, and KPC were each treated with 0.1% DMSO and concentrations of 164B8 ranging between 0.5 and 15 μM for 24 h, and Pin1 levels were quantified with respect to β-actin using a specific anti-Pin1 antibody and western blotting (uncropped blots are reported in Figure S6).
At the end of the treatments, cells were lysed with a lysis buffer containing 20 mM Tris (pH 7.4), 1% Triton X-100, 5 mM EDTA, 0.1% sodium dodecyl sulfate (SDS), 1% IGEPAL, 0.5% sodium deoxycholate, 120 mM NaCl, and a protease inhibitor cocktail and PhosSTOP (Sigma-Aldrich). Lysates were then centrifuged at 16,000 × g for 20 min at 4°C, and the supernatants were collected. Protein concentrations were determined using the Pierce BCA Protein Assay Kit (Thermo Fisher Scientific) according to the manufacturer’s protocol. For traditional western blotting (Figure 2), samples were loaded onto precast Bis-Tris gels and subsequently transferred onto PVDF membranes. […]

human Pin1 [3] = target: T1, human Pin1; assay: DELFIA displacement assay (biotinylated D-peptide / His-tagged Pin1); type: binding; conditions: DELFIA displacement of biotinylated D-peptide from His-tagged Pin1; compound incubation 6 h; ± standard error of duplicate measurements
Method: as §1

## CNC(=O)[C@H](Cc1c[nH]c2ccccc12)NC(=O)[C@@H]1CCCCN1C(=O)[C@H](Cc1c[nH]c2cc(Cl)ccc12)NC(=O)CCl [164B8] (ClAc-[Trp(6-Cl)]-[Pip]-Trp-NHMe)
[1]
  half-life at 1 μg/mL: > 5 h
Human Pin1 [2]
  ΔTm (°C): −9.55 ± 0.19 °C
Pin1 in KPC cells
  DC50 of Pin1 degradation: sub-micromolar
Human Pin1 [3]
  IC50: 4.65 ± 0.04 nM
